Measurements as given in patent publication US20150157604A1, “PHARMACEUTICAL COMPOSITION FOR THE PROPHYLAXIS AND TREATMENT OF PSYCHOLOGICAL, BEHAVIORAL AND COGNITIVE DISORDERS” (LTD << VALENTA-INTELLEKT >>, priority 2012, published 2015).

Tests used:
cerebral edema = conditions: rats; second administration; cited from earlier work
[1] = tested on: dopamine concentration in the forebrain regions; conditions: cited from earlier work
[2] = cited from earlier work
[3] = tested on: patients with mixed dementia and patients with Alzheimer's disease; assay: Study of pharmacological activity: half-year neurological study (MMSE, visual and aural-speech memory, clock drawing test, Schulte Table); format: in vivo, human
Source text: The subjects under the study have been 25 patients with mixed dementia and 12 patients with Alzheimer's disease. The average age of the patients is 70±3 years. Dementia has been diagnosed in accordance with the dementia criteria under ICD-10 [International statistic classification of diseases and problems relating to health. Tenth revision (ICD-10). V.1 (Part 1). Geneva: WHO, 1995; p. 315, 510-1]. Dimentia severity has been assessed according to Clinical Dementia Rating Scale—CDR [Hughes C P, Berg L, Danziger W L et al. A new clinical scale for the staging of dementia. Brit J Psychiatry 1982; 140: 566-72]. In the group of patients with mixed dementia it is 1.2±0.3, and in the group with Alzheimer's disease—1.1±0.36. All the patients have been subdivided into two groups. The first group has received […] of memantine once a day. The second group received capsules according to Example 4. A complex neurological study has been conducted with the patients for half a year, the study included brief evaluation of mental status (MMSE), a test for visual and aural-speech memory under the dementia scale, the clock drawing test as well as the test for attention—Schulte Table. The outcome has been processed with the use of the statistical package for social sciences (SPSS), Version 10.0.

COc1ccc2[nH]cc(CCNC(C)=O)c2c1 [melatonin, N-acetyl-5-methoxytriptamine]
reduction of the volume of cerebral edema (cerebral edema): 2 times

CC12CC3CC(C)(C1)CC(N)(C3)C2 [memantine, 1-amino-3,5-dimethyladamantan]
dopamine concentration ([1]; after a single dosing): remains unchanged | rise of dopamine concentration in the forebrain regions ([1]; during prolonged administration): ≥ 10 times | time to concentration peak in the brain ([2]; after a single dosing): one | half-life ([2]; in vivo): approximately 100 hours | increase of clock drawing test ([3]; in 6 months): 0.2±0.1 | increase of total score of the mental status evaluation (MMSE) ([3]; in 6 months, patients with mixed dementia or Alzheimer's disease): 1.5±0.3 | lowering of Schulte test ([3]; in 6 months, test for attention): 20.5±3.6 | increase of visual memory ([3]; in 6 months, test under the dementia scale): 0.5±0.2 | patients with positive therapeutic effect ([3]; patients with Alzheimer's disease): 25% | patients with positive therapeutic effect ([3]; patients with mixed dementia): 86% | side effects ([3]; patients, half-year study): increase in the intracranial pressure was observed
